The target in this assay is T1, BRM (Homo sapiens, UniProt P51531).
T1 construct: In-Cell Western Screen of BRM Degradation in SW1573 Cells; endogenous in cells; host or cells: SW1573
The experiment in a line: In-cell Western screen of BRM degradation in SW1573 cells (Dmax and DC50). The class given is cell-based. The method, boiled down:
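SW1573 cells were treated overnight (18-20 hours) with compound at 0.1% final DMSO. They were then PFA-fixed, permeabilised with Triton X-100 and immunostained with 800 nm/680 nm secondary antibodies. BRM signal was quantified by LI-COR in-cell Western imaging to derive Dmax and DC50.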

The mark [1] stands for this setting: BRM degradation, SW1573 cells, read-out: DC50.
Setting [2] is: BRM degradation, SW1573 cells, when tested at the top concentration of between 0.3 and 10 μM, read-out: Dmax (%) (% degraded).
Setting [3] is: BRM degradation, SW1573 cells, read-out: Dmax (% degraded).

SMILES strings stand for the structures. Like-named read-outs stand apart in the source and are kept apart here.

T1 sequence (P51531 whole entry): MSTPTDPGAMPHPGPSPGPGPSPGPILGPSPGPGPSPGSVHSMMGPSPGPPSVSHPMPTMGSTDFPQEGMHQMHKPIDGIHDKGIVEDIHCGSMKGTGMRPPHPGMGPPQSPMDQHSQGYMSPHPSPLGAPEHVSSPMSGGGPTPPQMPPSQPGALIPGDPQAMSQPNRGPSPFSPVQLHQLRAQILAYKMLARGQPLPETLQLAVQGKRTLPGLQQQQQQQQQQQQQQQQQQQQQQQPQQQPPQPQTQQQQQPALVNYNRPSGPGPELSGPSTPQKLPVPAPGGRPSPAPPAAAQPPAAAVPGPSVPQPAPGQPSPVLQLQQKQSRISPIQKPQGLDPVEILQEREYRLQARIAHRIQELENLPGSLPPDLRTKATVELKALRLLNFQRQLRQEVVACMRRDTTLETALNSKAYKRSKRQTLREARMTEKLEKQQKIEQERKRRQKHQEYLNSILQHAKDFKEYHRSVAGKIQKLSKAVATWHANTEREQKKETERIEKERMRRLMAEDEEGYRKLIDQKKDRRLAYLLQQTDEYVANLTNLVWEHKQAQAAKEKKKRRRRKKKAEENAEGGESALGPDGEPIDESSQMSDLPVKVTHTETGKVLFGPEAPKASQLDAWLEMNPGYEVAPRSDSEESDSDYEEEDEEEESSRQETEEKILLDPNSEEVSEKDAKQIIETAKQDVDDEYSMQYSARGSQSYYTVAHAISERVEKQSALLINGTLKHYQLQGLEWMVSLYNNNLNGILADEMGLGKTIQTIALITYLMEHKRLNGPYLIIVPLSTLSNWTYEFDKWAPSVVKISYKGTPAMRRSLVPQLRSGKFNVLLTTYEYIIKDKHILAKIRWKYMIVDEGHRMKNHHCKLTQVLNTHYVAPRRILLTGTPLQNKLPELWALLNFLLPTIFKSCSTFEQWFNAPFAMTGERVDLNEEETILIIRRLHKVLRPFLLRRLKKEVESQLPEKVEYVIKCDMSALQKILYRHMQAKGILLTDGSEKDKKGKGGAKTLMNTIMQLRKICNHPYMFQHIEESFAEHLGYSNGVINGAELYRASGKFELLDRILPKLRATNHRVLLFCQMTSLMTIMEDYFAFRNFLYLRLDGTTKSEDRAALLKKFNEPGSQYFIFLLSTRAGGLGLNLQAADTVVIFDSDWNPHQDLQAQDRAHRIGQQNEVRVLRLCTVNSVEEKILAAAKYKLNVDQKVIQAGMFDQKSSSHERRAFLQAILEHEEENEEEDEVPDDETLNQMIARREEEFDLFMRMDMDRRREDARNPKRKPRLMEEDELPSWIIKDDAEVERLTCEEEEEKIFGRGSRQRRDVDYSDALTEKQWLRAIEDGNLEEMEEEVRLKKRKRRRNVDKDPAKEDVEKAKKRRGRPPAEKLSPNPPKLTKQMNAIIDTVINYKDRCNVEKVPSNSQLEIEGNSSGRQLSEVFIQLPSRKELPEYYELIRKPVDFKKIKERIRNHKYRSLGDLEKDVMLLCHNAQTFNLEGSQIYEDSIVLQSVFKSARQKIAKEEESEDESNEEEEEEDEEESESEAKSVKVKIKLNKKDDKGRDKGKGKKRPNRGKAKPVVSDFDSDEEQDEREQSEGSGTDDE

Broadly, the DC50 is the midpoint of the concentration-degradation curve. As usually defined, the Dmax is the largest share of the target that was removed. With `Cc1ncsc1-c1ccc(CNC(=O)[C@@H]2C[C@@H](O)CN2C(=O)[C@@H](NC(=O)COCCOCCOCCOc2cc(N3C4CCC3CN(c3cc(-c5ccccc5O)nnc3N)C4)ccn2)C(C)(C)C)cc1` [compound 6, (2S,4R)-1-((2S)-14-((4-(3-(3-amino-6-(2-hydroxyphenyl)pyridazin-4-yl)-3,8-diazabicyclo[2.1]octan-8-yl)pyridin-2-yl)oxy)-2-(tert-butyl)-4-oxo-6,9,12-trioxa-3-azatetradecanoyl)-4-hydroxy-N-(4-(4-methylthiazol-5-yl)benzyl)pyrrolidine-2-carboxamide], the DC50 under setting [1] fell in the range of 10 to 30 nM. Besides, under setting [2], the Dmax is greater than 75%. For `Cc1ncsc1-c1ccc([C@H](C)NC(=O)[C@@H]2C[C@@H](O)CN2C(=O)[C@@H](c2cc(OCCN3CCC(O[C@H]4C[C@H](Oc5cc(N6C7CCC6CN(c6ccnc8nc(-c9ccccc9O)cn68)C7)ccn5)C4)CC3)no2)C(C)C)cc1` [compound 515], for the setting “BRM degradation, read-out: BRM DC50”, the DC50 was greater than 30 nM. As to `Cc1ncsc1-c1ccc([C@H](C)NC(=O)[C@@H]2C[C@@H](O)CN2C(=O)[C@@H](c2cc(N3CCC[C@H](CN4CCC(O[C@H]5C[C@H](Oc6cc(N7C8CCC7CN(c7cc(-c9ccccc9O)nnc7N)C8)ccn6)C5)CC4)C3)no2)C(C)C)cc1` (single isomer, unassigned) [compound 656], under setting [1], the DC50 is less than 2.5 nM. Moreover, under setting [3], the Dmax is greater than 75%. The like results for `CC(C)[C@@H](C(=O)N1C[C@H](O)C[C@H]1C(=O)N[C@@H](C)c1ccc(-c2scnc2N)cc1)c1cc(N2CCC(CN3CCC(O[C@H]4C[C@H](Oc5cc(N6C7CCC6CN(c6cc(-c8ccccc8O)nnc6N)C7)ccn5)C4)CC3)CC2)no1` [compound 630, (2S,4R)-1-((2R)-2-(3-(4-((4-((1r,3r)-3-((4-(3-(3-amino-6-(2-hydroxyphenyl)pyridazin-4-yl)-3,8-diazabicyclo[3.2.1]octan-8-yl)pyridin-2-yl)oxy)cyclobutoxy)piperidin-1-yl)methyl)piperidin-1-yl)isoxazol-5-yl)-3-methylbutanoyl)-N-((S)-1-(4-(4-aminothiazol-5-yl)phenyl)ethyl)-4-hydroxypyrrolidine-2-carboxamide] were, in that order, less than 2.5 nM and greater than 75%. Turning to `Cc1ncsc1-c1ccc(CNC(=O)[C@@H]2C[C@@H](O)CN2C(=O)[C@@H](NC(=O)COCCOCCOCCOCCOCCOCCOCCn2cc(-c3cc(-c4ccccc4O)nnc3N)cn2)C(C)(C)C)cc1` [compound 5, (2S,4R)-1-((S)-26-(4-(3-amino-6-(2-hydroxyphenyl)pyridazin-4-yl)-1H-pyrazol-1-yl)-2-(tert-butyl)-4-oxo-6,9,12,15,18,21,24-heptaoxa-3-azahexacosanoyl)-4-hydroxy-N-(4-(4-methylthiazol-5-yl)benzyl)pyrrolidine-2-carboxamide], the DC50 under setting [1] was greater than 30 nM. Moreover, the Dmax under setting [2] was greater than 75%. With `Cc1ncsc1-c1ccc([C@H](C)NC(=O)[C@@H]2C[C@@H](O)CN2C(=O)[C@@H](NC(=O)Cc2ccc(N3CCN(CCOCCCc4cc(N5C6CCC5CN(c5cc(-c7ccccc7O)nnc5N)C6)ccn4)CC3)nc2)C(C)(C)C)cc1` [compound 50, (2S,4R)-1-[(2S)-2-[2-[6-(4-[2-[3-(4-[3-[3-amino-6-(2-hydroxyphenyl)pyridazin-4-yl]-3,8-diazabicyclo[3.2.1]octan-8-yl]pyridin-2-yl)propoxy]ethyl]piperazin-1-yl)pyridin-3-yl]acetamido]-3,3-dimethylbutanoyl]-4-hydroxy-N-[(1S)-1-[4-(4-methyl-1,3-thiazol-5-yl)phenyl]ethyl]pyrrolidine-2-carboxamide], the DC50 under setting [1] lay in the range of 10 to 30 nM. Besides, the Dmax under setting [2] is greater than 75%. The like results for `Cc1ncsc1-c1ccc([C@H](C)NC(=O)[C@@H]2C[C@@H](O)CN2C(=O)[C@@H](c2cc(OCC#Cc3ccc(O[C@H]4C[C@H](Oc5cc(N6C7CCC6CN(c6cc(-c8ccccc8O)nnc6N)C7)ccn5)C4)cn3)no2)C(C)C)cc1` [compound 70, (2S,4R)-1-((2R)-2-(3-((3-(5-((1r,3R)-3-((4-(3-(3-amino-6-(2-hydroxyphenyl)pyridazin-4-yl)-3,8-diazabicyclo[3.2.1]octan-8-yl)pyridin-2-yl)oxy)cyclobutoxy)pyridin-2-yl)prop-2-yn-1-yl)oxy)isoxazol-5-yl)-3-methylbutanoyl)-4-hydroxy-N-((S)-1-(4-(4-methylthiazol-5-yl)phenyl)ethyl)pyrrolidine-2-carboxamide] were, in that order, less than 2.5 nM and greater than 75%. Consider `Cc1ncsc1-c1ccc([C@H](C)NC(=O)[C@@H]2C[C@@H](O)CN2C(=O)[C@@H](c2cc(OCCN[C@H]3CC[C@@H](O[C@H]4C[C@@H](Oc5cc(N6C7CCC6CN(c6cc(-c8ccccc8O)nnc6N)C7)ccn5)C4)CC3)no2)C(C)C)cn1` [compound 388, (2S,4R)-1-((2R)-2-(3-(2-(((1S,4S)-4-((1r,3S)-3-((4-(3-(3-amino-6-(2-hydroxyphenyl)pyridazin-4-yl)-3,8-diazabicyclo[3.2.1]octan-8-yl)pyridin-2-yl)oxy)cyclobutoxy)cyclohexyl)amino)ethoxy)isoxazol-5-yl)-3-methylbutanoyl)-4-hydroxy-N-((S)-1-(6-(4-methylthiazol-5-yl)pyridin-3-yl)ethyl)pyrrolidine-2-carboxamide], for which the Dmax (SW1573, % degraded, when tested at the top concentration of between 0.3 and 10 μM, read-out: BRM Dmax (%)) is greater than 75%. Where the note is “target protein degradation, read-out: BRM DC50”, the DC50 lay in the range of 2.5 to 10 nM. Consider `Cc1ncsc1-c1ccc([C@H](C)NC(=O)[C@@H]2C[C@@H](O)CN2C(=O)[C@@H](c2cc(OCC[C@@H]3CCN(C[C@H]4C[C@H](Oc5cc(N6C7CCC6CN(c6cc(-c8ccccc8O)nnc6N)C7)ccn5)C4)[C@@H](C)C3)no2)C(C)C)cc1` (racemic) [compound 582, (2S,4R)-1-((2R)-2-(3-(2-((2S,4R)-1-(((1r,3S)-3-((4-(3-(3-amino-6-(2-hydroxyphenyl)pyridazin-4-yl)-3,8-diazabicyclo[3.2.1]octan-8-yl)pyridin-2-yl)oxy)cyclobutyl)methyl)-2-methylpiperidin-4-yl)ethoxy)isoxazol-5-yl)-3-methylbutanoyl)-4-hydroxy-N-((S)-1-(4-(4-methylthiazol-5-yl)phenyl)ethyl)pyrrolidine-2-carboxamide], for which, under “BRM degradation, SW1573 cells, Table 2D, read-out: **Dmax (%) (% degraded)”, the maximal degradation (Dmax) was greater than 75%. For the same compound, the DC50 (BRM degradation, SW1573 cells, Table 2D, read-out: *DC50) was less than 2.5 nM.

Turning to `Cc1ncsc1-c1ccc([C@H](C)NC(=O)[C@@H]2C[C@@H](O)CN2C(=O)[C@H](c2cc(N3CCC4(CC3)CC(CN3CCC(O[C@H]5C[C@H](Oc6cc(N7C8CCC7CN(c7cc(-c9ccccc9O)nnc7N)C8)ccn6)C5)CC3)C4)no2)C(C)C)cc1` [compound 649, (2S,4R)-1-((2S)-2-(3-(2-((4-((1r,3r)-3-((4-(3-(3-amino-6-(2-hydroxyphenyl)pyridazin-4-yl)-3,8-diazabicyclo[3.2.1]octan-8-yl)pyridin-2-yl)oxy)cyclobutoxy)piperidin-1-yl)methyl)-7-azaspiro[3.5]nonan-7-yl)isoxazol-5-yl)-3-methylbutanoyl)-4-hydroxy-N-((S)-1-(4-(4-methylthiazol-5-yl)phenyl)ethyl)pyrrolidine-2-carboxamide], under setting [1], the DC50 is greater than 30 nM.

Values taken from US12539292B2, “BRM targeting compounds and associated methods of use” (Arvinas Operations, Inc., priority 2018, dated 2026).
